Assay [1] concerns the target PI3Kδ (p110δ/p85α) Recombinant Human Protein (Homo sapiens (Human), UniProt O00329). The assay is described as follows: PI3Kδ Scintillation Proximity Assay. In kind it is biochemical. In short, it runs like this: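 Assay conditions: 2 μM ATP (radiolabelled), 20 μM PIP2, 3.4 nM PI3Kδ, 20 mM MOPS pH 6.7 with 10 mM MgCl2, 5 mM DTT, 0.03% CHAPS, 2 h at room temperature. Signal from bead-captured 33P product; IC50 versus solvent control.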

Assay [2] has as its target PI3Kγ (p110γ) Recombinant Human Protein (Homo sapiens (Human), UniProt P48736). The experiment in a line: PI3K-γ Scintillation Proximity Assay. It counts as biochemical. The following applies: read-out: PI3Kγ IC50. In short, it runs like this:
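Radiometric SPA readout: […] bound to WGA beads after overnight shaking, IC50 derived from % activity of DMSO control. Reaction used human p110γ, 2 μM ATP, 20 μM PIP2, pH 6.7 MOPS buffer with MgCl2, DTT, CHAPS, 2% DMSO, room temperature.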
(In general: In a scintillation proximity assay essentially only radioactivity close to the scintillant gives light.)

The test system of assay [3] is Phosphorylated Ribosomal Protein S6 (RPS6). The assay is described as follows: THP-1 RPS6 ELISA Assay. The following applies: THP-1 cells, read-out: PI3Kγ_THP1_RPS6_ELISA IC50. It counts as cell-based, Human. Put shortly:
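IC50 values come from a curve of percent inhibition against log compound concentration, using phospho-RPS6 ELISA (450 nm) on THP-1 lysates. Cells were serum-starved overnight, exposed to compound for 2 h at 37 °C, then challenged 15 min with 10 nM MCP-1.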

Counter-ions that a name gives are not always drawn. Like-named read-outs stand apart in the source and are kept apart here. Where only a bound is given, the exact number is not on record here.

As usually defined, the IC50 is the concentration needed to halve the response being measured.

Sequence of PI3Kγ (p110γ) Recombinant Human Protein (P48736 whole entry): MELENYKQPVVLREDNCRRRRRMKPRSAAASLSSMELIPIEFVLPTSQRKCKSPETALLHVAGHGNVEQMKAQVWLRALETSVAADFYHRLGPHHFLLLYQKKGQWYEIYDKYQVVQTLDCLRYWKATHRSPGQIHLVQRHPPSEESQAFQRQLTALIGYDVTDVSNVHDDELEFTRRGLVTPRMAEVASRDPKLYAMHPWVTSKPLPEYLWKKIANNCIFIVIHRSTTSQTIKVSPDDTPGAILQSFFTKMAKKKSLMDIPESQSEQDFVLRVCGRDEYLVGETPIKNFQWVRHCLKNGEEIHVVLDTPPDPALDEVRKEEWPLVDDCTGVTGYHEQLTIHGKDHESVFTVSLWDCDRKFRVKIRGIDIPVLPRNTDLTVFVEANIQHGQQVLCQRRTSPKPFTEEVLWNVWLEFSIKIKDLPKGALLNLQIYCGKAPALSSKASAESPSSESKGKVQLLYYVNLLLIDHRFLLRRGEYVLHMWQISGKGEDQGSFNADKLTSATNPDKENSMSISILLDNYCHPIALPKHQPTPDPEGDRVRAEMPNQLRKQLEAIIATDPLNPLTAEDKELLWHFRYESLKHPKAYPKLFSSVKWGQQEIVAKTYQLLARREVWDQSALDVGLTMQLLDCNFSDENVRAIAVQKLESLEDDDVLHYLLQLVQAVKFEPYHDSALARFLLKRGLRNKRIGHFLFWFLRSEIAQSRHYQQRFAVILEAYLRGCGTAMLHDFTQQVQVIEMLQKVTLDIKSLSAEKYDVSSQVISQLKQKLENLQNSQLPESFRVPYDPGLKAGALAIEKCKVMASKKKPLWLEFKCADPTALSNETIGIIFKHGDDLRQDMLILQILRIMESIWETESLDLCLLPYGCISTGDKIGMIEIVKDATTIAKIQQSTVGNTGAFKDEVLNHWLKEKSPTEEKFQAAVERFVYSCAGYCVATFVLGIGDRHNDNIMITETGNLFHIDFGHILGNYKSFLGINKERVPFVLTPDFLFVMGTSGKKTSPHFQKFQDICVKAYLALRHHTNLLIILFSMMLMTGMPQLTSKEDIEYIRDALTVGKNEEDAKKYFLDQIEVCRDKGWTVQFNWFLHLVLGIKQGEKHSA
Sequence of PI3Kδ (p110δ/p85α) Recombinant Human Protein (O00329 whole entry): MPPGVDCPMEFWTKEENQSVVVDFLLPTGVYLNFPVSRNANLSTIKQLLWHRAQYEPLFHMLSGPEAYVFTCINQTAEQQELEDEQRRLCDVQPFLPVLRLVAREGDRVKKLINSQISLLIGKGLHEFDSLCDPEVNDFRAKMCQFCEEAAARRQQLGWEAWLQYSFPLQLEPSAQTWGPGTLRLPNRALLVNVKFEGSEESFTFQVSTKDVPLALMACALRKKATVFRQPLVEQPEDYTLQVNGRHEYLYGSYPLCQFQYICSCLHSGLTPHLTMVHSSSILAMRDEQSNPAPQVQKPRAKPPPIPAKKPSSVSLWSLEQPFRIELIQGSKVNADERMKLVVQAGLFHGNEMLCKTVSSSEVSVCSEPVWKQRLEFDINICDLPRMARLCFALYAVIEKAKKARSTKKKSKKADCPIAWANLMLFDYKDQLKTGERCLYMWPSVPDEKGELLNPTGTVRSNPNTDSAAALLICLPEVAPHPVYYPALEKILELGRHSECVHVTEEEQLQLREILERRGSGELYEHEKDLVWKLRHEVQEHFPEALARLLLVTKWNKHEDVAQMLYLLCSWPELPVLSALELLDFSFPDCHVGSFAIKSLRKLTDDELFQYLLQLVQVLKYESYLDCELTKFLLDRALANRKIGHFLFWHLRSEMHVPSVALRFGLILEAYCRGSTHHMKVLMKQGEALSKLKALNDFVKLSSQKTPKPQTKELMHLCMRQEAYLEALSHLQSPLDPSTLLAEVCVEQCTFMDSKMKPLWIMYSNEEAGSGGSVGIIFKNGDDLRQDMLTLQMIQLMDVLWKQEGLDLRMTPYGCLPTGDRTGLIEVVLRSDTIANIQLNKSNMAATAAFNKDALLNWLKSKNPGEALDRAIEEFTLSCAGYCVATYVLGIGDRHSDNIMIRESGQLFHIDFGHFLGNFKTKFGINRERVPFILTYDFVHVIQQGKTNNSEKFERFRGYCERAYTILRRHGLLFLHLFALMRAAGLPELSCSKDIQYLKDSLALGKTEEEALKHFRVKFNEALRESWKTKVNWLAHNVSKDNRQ
Sequence of PI3Kδ (p110δ/p85α) Recombinant Human Protein (P27986 whole entry partner): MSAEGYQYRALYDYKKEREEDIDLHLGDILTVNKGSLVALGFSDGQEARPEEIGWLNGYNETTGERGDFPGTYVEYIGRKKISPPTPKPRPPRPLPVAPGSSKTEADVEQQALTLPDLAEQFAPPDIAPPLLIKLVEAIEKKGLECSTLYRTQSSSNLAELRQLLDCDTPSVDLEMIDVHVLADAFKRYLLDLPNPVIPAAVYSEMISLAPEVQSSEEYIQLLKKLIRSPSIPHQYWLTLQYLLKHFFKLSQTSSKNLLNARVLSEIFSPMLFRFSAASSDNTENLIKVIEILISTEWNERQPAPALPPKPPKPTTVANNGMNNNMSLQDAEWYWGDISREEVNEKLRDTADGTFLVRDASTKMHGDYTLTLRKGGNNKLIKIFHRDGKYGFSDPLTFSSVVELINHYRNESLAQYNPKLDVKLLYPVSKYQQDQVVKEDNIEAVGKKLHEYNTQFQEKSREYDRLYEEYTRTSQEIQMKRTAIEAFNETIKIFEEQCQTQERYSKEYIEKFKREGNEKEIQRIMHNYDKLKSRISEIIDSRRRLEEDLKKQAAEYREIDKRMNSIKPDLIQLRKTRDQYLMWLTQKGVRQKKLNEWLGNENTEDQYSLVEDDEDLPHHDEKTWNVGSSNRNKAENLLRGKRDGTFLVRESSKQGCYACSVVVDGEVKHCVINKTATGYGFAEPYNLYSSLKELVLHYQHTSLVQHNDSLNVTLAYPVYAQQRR

Take `Cc1ccc(S(=O)(=O)NC23CCC(O)(CC2)C3)cc1-c1cnc2c(N)ncnn12` [Example 442, 3-(4-Aminoimidazo[1,2-f][1,2,4]triazin-7-yl)-N-((1s,4s)-4-hydroxybicyclo[2.2.1]heptan-1-yl)-4-methylbenzenesulfonamide trifluoroacetate salt]: the values for the IC50 in assay [1], in assay [2] and in assay [3] (Homo sapiens) were 0.5 to 2 µM, less than 0.1 µM and 0.1 to 0.5 µM, respectively.

For `Cc1ccc(S(=O)(=O)N[C@]2(C)CC[C@@H](O)CC2)cc1-c1cnc2c(N)ncnn12` [Example 127, 3-(4-aminoimidazo[2,1-f][1,2,4]triazin-7-yl)-N-(trans-4-hydroxy-1-methylcyclohexyl)-4-methylbenzenesulfonamide], the IC50 in assay [1] was 0.5 to 2 µM; in assay [2], less than 0.1 µM; in assay [3], 0.1 to 0.5 µM.

On to `Cc1ccc(S(=O)(=O)N[C@H]2CC[C@H](O)CC2)cc1-c1cnc2c(N)nc(C(C)C)cn12` [Example 504, 3-(8-Amino-6-isopropylimidazo[1,2-a]pyrazin-3-yl)-N-(trans-4-hydroxycyclohexyl)-4-methylbenzenesulfonamide], for which the IC50 in assay [1], in assay [2] and in assay [3] (Homo sapiens) was less than 0.1 µM throughout.

In the case of `Cc1ccc(S(=O)(=O)N[C@H]2CC[C@H](CC#N)OC2)cc1-c1cnc2c(N)ncnn12` [Example 183, 3-(4-aminoimidazo[2,1-f][1,2,4]triazin-7-yl)-N-((3S,6R)-6-(cyanomethyl)tetrahydro-2H-pyran-3-yl)-4-methylbenzenesulfonamide], the figures for the IC50 in assay [1], in assay [2] and in assay [3] (Homo sapiens) were 0.1 to 0.5 µM, less than 0.1 µM and less than 0.1 µM, respectively.

`Cc1ccc(S(=O)(=O)N[C@H]2CC[C@H](O)CC2)cc1-c1cnc2c(N)nc(-c3cccs3)cn12` [Example 27, 3-[8-Amino-6-(2-thienyl)imidazo[1,2-a]pyrazin-3-yl]-N-(trans-4-hydroxycyclohexyl)-4-methylbenzenesulfonamide]: the values for the IC50 in assay [1], in assay [2] and in assay [3] (Homo sapiens) were 0.1 to 0.5 µM, less than 0.1 µM and less than 0.1 µM, respectively.

With `[2H]C([2H])([2H])c1ccc(S(=O)(=O)NC23CC(CC#N)(C2)C3)cc1-c1cnc2c(N)ncnn12` [Example 371, trifluoroacetate salt], the IC50 in assay [1] was 0.1 to 0.5 µM; in assay [2] it was less than 0.1 µM; in assay [3] (Homo sapiens) it was 0.1 to 0.5 µM.

As for `Cc1ccc(S(=O)(=O)N[C@H]2C[C@H](O)C2)cc1-c1cnc2c(N)ncnn12` [Example 71, 3-(4-Aminoimidazo[2,1-f][1,2,4]triazin-7-yl)-N-(trans-3-hydroxycyclobutyl)-4-methylbenzenesulfonamide], the values for the IC50 in assay [1], in assay [2] and in assay [3] (Homo sapiens) were more than 2 µM, less than 0.1 µM and 0.1 to 0.5 µM, respectively.

In the case of `Cc1ccc(S(=O)(=O)NC23CC(c4nnn[nH]4)(C2)C3)cc1-c1cnc2c(N)nc(C(F)(F)F)cn12` [Example 292, N-(3-(1H-Tetrazol-5-yl)bicyclo[1.1.1]pentan-1-yl)-3-(8-amino-6-(trifluoromethyl)imidazo[1,2-a]pyrazin-3-yl)-4-methylbenzenesulfonamide trifluoroacetate salt], the concentration for half-maximal inhibition (IC50) in assay [1] was 0.5 to 2 µM; in assay [2], less than 0.1 µM; in assay [3] (Homo sapiens), more than 1 µM.

As to `Cc1ccc(S(=O)(=O)NC23CCC(C(O)C(F)(F)F)(CC2)OC3)cc1-c1cnc2c(N)ncnn12` (racemic) [Example 437, 3-(4-Aminoimidazo[1,2-f][1,2,4]triazin-7-yl)-4-methyl-N-(1-(2,2,2-trifluoro-1-hydroxyethyl)-2-oxabicyclo[2.2.2]octan-4-yl)benzenesulfonamide trifluoroacetate salt (racemic)], the 50% inhibitory concentration (IC50) in assay [1] was 0.1 to 0.5 µM; in assay [2], less than 0.1 µM; in assay [3] (Homo sapiens), 0.1 to 0.5 µM.

Turning to `O=C(O)C(F)(F)F.[2H]C([2H])([2H])c1ccc(S(=O)(=O)NC23CCC(C#N)(CC2)C3)cc1-c1cnc2c(N)ncnn12` [Example 362, 3-(4-Aminoimidazo[2,1-f][1,2,4]triazin-7-yl)-N-(4-cyanobicyclo[2.2.1]heptan-1-yl)-4-(methyl-d3)benzenesulfonamide trifluoroacetate salt], the IC50 in assay [1] was 0.1 to 0.5 µM; in assay [2], less than 0.1 µM; in assay [3] (Homo sapiens) it was less than 0.1 µM.

As to `N#CC12CCC(NS(=O)(=O)c3cccc(-c4cnc5c(N)ncnn45)c3)(C1)C2` [Example 364, 3-(4-Aminoimidazo[1,2-f][1,2,4]triazin-7-yl)-N-(4-cyanobicyclo[2.1.1]hexan-1-yl)benzenesulfonamide trifluoroacetate salt], the IC50 is 0.1 to 0.5 µM in assay [1], less than 0.1 µM in assay [2] and less than 0.1 µM in assay [3].

Regarding `Nc1nccn2c(-c3ccc(F)c(S(=O)(=O)NCC4(CO)CCOCC4)c3)cnc12` [Example 360, 5-(8-aminoimidazo[1,2-a]pyrazin-3-yl)-2-fluoro-N-((4-(hydroxymethyl)tetrahydro-2H-pyran-4-yl)methyl)benzenesulfonamide], the 50% inhibitory concentration (IC50) in assay [1] is 0.1 to 0.5 µM; in assay [2] it was 0.1 to 0.5 µM; in assay [3] (Homo sapiens), more than 1 µM.

With `O=C(O)C(F)(F)F.[2H]C([2H])([2H])c1ccc(S(=O)(=O)NC23CCC(C#N)(C2)C3)cc1-c1cnc2c(N)nc(C)cn12` [Example 379, 3-(8-Amino-6-methylimidazo[1,2-a]pyrazin-3-yl)-N-(4-cyanobicyclo[2.1.1]hexan-1-yl)-4-(methyl-d3)benzenesulfonamide trifluoroacetate salt], the half-maximal inhibitory concentration (IC50) in assay [1] is 0.1 to 0.5 µM; in assay [2] it was less than 0.1 µM; in assay [3] (Homo sapiens) it was less than 0.1 µM.

On to `CCS(=O)(=O)Nc1cc(-c2cnc3c(N)cccn23)cnc1F` [Example 2, N-[5-(8-Aminoimidazo[1,2-a]pyridin-3-yl)-2-fluoropyridin-3-yl]ethanesulfonamide bis(trifluoroacetate)], for which the half-maximal inhibitory concentration (IC50) in assay [1] is 0.5 to 2 µM; in assay [2] it was 0.1 to 0.5 µM; in assay [3] (Homo sapiens), more than 1 µM.

`Cc1ccc(S(=O)(=O)NC23CC(CC#N)(C2)C3)cc1-c1cnc2c(N)nc(C(F)(F)F)cn12` [Example 276, 3-(8-Amino-6-(trifluoromethyl)imidazo[1,2-a]pyrazin-3-yl)-N-(3-(cyanomethyl)bicyclo[1.1.1]pentan-1-yl)-4-methylbenzenesulfonamide trifluoroacetate salt]: the IC50 is 0.1 to 0.5 µM in assay [1], less than 0.1 µM in assay [2] and less than 0.1 µM in assay [3] (Homo sapiens).

Regarding `Cc1ccc(S(=O)(=O)NC23CCC(CC2)CC3)cc1-c1cnc2c(N)ncnn12` [Example 181, 3-(4-aminoimidazo[1,2-f][1,2,4]triazin-7-yl)-N-(bicyclo[2.2.2]octan-1-yl)-4-methylbenzenesulfonamide trifluoroacetate salt], the IC50 in assay [1] was less than 0.1 µM; in assay [2], less than 0.1 µM; in assay [3], 0.1 to 0.5 µM.

Consider `Cc1ccc(S(=O)(=O)CC2CC(F)(F)C2)cc1-c1cnc2c(N)ncnn12` [Example 500, 7-(5-(((3,3-Difluorocyclobutyl)methyl)sulfonyl)-2-methylphenyl)imidazo[2,1-f][1,2,4]triazin-4-amine], for which the IC50 in assay [1] is 0.5 to 2 µM; in assay [2], less than 0.1 µM; in assay [3] (Homo sapiens), 0.1 to 0.5 µM.

For the compound `Cc1ccc(S(=O)(=O)N[C@H]2CC[C@H](CO)OC2)cc1-c1cnc2c(N)nc(C(F)(F)F)cn12` [Example 311], the IC50 was 0.1 to 0.5 µM in assay [1], less than 0.1 µM in assay [2] and less than 0.1 µM in assay [3].

With `Cc1cn2c(-c3cccc(S(=O)(=O)NC45CCC(CO)(C4)C5)c3)cnc2c(N)n1` [Example 381, 3-(8-Amino-6-methylimidazo[1,2-a]pyrazin-3-yl)-N-(4-(hydroxymethyl)bicyclo[2.1.1]hexan-1-yl)benzenesulfonamide], the IC50 in assay [1] is 0.1 to 0.5 µM; in assay [2], less than 0.1 µM; in assay [3] (Homo sapiens), 0.1 to 0.5 µM.

For the compound `Cc1ccc(S(=O)(=O)N(C)[C@H]2CC[C@H](O)CC2)cc1-c1cnc2c(N)nccn12` [Example 52, 3-(8-Aminoimidazo[1,2-a]pyrazin-3-yl)-N-(trans-4-hydroxycyclohexyl)-N,4-dimethylbenzenesulfonamide], the IC50 in assay [1] is 0.1 to 0.5 µM; in assay [2], less than 0.1 µM; in assay [3] (Homo sapiens), 0.5 to 1 µM.

As for `Cc1ccc(S(=O)(=O)NC23COC(CO)(C2)C3)cc1-c1cnc2c(N)nc(C(F)(F)F)nn12` [Example 427, 3-(4-Amino-2-(trifluoromethyl)imidazo[1,2-f][1,2,4]triazin-7-yl)-N-(1-(hydroxymethyl)-2-oxabicyclo[2.1.1]hexan-4-yl)-4-methylbenzenesulfonamide trifluoroacetate salt], the figures for the half-inhibitory concentration (IC50) in assay [1], in assay [2] and in assay [3] (Homo sapiens) were 0.1 to 0.5 µM, less than 0.1 µM and 0.1 to 0.5 µM, respectively.

Turning to `Cc1ccc(S(=O)(=O)NC2CCOC2C)cc1-c1cnc2c(N)ncnn12` (stereo not drawn) [Example 100, 3-(4-Aminoimidazo[1,2-f][1,2,4]triazin-7-yl)-4-methyl-N-(2-methyltetrahydrofuran-3-yl)benzenesulfonamide trifluoroacetate salt], the values for the IC50 in assay [1], in assay [2] and in assay [3] were 0.5 to 2 µM, less than 0.1 µM and 0.5 to 1 µM, respectively.

(Values after patent publication US10479795B2 (Incyte Corporation, priority 2016, dated 2019).)
